Data reported in ChEMBL document CHEMBL1781991, “Heteroalicyclic carboxamidines as inhibitors of inducible nitric oxide synthase; the identification of (2R)-2-pyrrolidinecarboxamidine as a potent and selective haem-co-ordinating inhibitor” (Bioorg Med Chem Lett, 2011).

How the values were obtained:
[1] = target: T1, Nitric oxide synthase, inducible (Homo sapiens, UniProt P35228); assay: Inhibition of human recombinant iNOS by microtiter plate assay
Nitric oxide synthase 1 = Nitric oxide synthase 1 (Homo sapiens, UniProt P29475); assay: Inhibition of human recombinant nNOS by microtiter plate assay
Nitric oxide synthase 3 = target: T2, Nitric oxide synthase 3 (Homo sapiens, UniProt P29474); assay: Inhibition of human recombinant eNOS by microtiter plate assay
T2 sequence (P29474 whole entry): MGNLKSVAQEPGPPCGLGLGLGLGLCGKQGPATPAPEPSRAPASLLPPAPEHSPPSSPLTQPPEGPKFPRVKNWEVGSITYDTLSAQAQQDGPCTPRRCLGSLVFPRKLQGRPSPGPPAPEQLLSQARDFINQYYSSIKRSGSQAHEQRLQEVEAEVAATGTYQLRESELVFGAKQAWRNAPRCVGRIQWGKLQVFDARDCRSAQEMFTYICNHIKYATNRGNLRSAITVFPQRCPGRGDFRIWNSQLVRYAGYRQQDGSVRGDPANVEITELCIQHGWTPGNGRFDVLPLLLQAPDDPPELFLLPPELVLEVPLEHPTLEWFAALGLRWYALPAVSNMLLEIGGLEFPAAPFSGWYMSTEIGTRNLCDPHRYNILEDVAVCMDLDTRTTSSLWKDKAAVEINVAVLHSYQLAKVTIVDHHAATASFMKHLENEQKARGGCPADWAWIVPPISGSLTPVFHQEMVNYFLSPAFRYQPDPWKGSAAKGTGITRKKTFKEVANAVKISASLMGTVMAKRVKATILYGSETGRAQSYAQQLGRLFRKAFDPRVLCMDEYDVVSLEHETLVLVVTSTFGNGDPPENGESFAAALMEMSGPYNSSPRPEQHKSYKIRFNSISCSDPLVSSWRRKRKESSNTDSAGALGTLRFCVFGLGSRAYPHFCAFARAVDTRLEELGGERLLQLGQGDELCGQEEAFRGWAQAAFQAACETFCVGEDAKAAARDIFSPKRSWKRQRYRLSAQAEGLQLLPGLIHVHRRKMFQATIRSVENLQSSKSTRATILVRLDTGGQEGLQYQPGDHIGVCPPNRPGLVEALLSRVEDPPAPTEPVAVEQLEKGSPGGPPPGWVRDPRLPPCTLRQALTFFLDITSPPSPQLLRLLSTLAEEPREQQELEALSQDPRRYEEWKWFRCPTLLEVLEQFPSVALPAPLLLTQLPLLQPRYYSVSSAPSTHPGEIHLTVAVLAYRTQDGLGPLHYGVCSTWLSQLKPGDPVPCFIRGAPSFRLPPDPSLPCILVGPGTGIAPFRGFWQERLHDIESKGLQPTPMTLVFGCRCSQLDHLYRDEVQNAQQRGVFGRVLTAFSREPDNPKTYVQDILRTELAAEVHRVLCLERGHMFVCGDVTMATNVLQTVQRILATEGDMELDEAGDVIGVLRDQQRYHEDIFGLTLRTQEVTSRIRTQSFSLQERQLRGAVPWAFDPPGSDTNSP

[2] = target: T1, Nitric oxide synthase, inducible; assay: Binding affinity to human recombinant iNOS delta 65 residue

Sequence of Nitric oxide synthase 1 (P29475 whole entry): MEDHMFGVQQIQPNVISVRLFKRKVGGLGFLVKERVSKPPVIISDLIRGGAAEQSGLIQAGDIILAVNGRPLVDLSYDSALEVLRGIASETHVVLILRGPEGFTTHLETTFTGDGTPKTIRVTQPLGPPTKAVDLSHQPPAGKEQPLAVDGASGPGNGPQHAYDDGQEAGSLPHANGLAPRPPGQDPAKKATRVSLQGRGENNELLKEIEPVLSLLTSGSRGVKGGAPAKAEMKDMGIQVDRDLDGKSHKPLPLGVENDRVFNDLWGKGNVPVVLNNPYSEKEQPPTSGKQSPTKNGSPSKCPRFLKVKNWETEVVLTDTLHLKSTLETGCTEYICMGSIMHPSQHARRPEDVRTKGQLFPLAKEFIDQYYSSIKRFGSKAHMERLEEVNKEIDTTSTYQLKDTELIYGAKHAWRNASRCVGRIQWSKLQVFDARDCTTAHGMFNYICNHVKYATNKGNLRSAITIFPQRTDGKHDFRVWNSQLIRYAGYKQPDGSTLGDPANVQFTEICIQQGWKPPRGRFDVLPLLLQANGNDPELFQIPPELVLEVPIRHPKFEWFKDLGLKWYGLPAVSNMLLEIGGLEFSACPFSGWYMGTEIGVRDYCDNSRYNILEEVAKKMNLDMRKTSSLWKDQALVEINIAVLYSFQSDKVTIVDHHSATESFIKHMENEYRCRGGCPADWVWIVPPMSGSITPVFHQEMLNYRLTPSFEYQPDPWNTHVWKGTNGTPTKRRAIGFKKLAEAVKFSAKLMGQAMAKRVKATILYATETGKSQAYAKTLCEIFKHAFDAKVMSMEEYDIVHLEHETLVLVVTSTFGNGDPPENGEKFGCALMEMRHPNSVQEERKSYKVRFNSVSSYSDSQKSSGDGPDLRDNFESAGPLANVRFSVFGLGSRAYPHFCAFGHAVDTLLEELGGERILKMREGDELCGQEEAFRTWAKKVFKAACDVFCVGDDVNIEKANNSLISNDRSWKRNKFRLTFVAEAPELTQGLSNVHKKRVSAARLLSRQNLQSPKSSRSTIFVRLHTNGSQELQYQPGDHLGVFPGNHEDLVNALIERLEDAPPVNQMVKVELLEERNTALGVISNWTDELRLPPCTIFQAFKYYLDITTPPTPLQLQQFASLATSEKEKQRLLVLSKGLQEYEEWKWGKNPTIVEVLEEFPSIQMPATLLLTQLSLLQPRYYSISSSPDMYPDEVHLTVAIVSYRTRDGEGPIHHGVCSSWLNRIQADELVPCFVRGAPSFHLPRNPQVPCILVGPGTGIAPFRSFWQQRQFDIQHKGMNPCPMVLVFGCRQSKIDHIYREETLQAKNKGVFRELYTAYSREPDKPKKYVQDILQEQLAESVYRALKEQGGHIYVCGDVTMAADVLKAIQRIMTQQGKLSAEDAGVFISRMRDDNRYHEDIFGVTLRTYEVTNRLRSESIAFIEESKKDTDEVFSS
T1 sequence (P35228 whole entry): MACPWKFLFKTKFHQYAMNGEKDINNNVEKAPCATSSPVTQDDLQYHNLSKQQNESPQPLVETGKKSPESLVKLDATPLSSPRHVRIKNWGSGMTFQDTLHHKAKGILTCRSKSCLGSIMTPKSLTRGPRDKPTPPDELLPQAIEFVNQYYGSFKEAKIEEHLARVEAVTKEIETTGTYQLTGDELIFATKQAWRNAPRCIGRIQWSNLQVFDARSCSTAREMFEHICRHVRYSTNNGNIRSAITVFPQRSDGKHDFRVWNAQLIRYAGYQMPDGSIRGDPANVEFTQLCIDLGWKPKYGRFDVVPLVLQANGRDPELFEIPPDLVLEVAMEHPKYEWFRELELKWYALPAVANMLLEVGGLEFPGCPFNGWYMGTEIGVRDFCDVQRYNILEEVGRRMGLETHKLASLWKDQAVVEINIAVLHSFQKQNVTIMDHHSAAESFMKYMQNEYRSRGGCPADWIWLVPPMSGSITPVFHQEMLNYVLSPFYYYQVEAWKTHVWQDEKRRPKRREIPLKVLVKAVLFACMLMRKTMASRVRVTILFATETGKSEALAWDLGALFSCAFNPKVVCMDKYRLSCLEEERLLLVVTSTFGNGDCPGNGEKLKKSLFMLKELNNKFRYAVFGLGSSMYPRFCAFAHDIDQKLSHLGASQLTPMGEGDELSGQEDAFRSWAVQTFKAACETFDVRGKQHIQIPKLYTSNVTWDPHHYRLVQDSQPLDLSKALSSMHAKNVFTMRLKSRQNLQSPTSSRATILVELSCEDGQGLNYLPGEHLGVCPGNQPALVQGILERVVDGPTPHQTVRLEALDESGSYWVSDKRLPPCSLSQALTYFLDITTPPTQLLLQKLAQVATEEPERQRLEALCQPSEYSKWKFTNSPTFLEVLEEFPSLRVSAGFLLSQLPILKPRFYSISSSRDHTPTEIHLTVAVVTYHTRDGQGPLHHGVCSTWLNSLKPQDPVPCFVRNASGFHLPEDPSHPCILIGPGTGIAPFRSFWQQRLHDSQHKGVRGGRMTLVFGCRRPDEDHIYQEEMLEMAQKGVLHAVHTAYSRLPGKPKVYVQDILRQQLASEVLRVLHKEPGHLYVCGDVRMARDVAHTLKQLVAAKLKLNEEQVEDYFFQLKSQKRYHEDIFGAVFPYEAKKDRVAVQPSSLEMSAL

Q: N=C(N)C1CNC1 was tested. Which IC50 [1] did it give?
A: 14000 nM

Q: How did the IC50 [1] turn out when N=C(N)C1CCCO1 (stereo not given) was run?
A: 8900 nM

Q: How did the IC50 [1] turn out when N=C(N)C1CCNCC1 was run?
A: 58000 nM

Q: For [H]/N=C(/N)C1CCCC1 [CYCLOPENTANECARBOXIMIDAMIDE], which IC50 [1] is on record?
A: 4400 nM

Q: N=C(N)[C@@H]1CCN1 was tested. Which IC50 (Nitric oxide synthase 1) did it give?
A: 1700 nM

Q: What about the IC50 [1] of the same compound?
A: 200 nM

Q: And the IC50 (Nitric oxide synthase 3)?
A: 2400 nM

Q: With N=C(N)C1CCC1 [CYCLOBUTANECARBOXIMIDAMIDE] as the compound, how does the IC50 [1] read?
A: 380 nM

Q: N=C(N)C1CCCCN1 (stereo not given) was tested. Which IC50 [1] did it give?
A: > 100000 nM

Q: How did the IC50 (Nitric oxide synthase 1) turn out when N=C(N)[C@@H]1CCCN1 was run?
A: > 100000 nM

Q: What about the IC50 [1] of the same compound?
A: 9400 nM

Q: What about the IC50 (Nitric oxide synthase 3) of the same compound?
A: > 100000 nM

Q: What about the Kd [2] of the same compound?
A: > 40000 nM

Q: How did the IC50 [1] turn out when N=C(N)C1C=CCN1 (stereo not given) was run?
A: 180 nM

Q: With N=C(N)C1CC1 [CYCLOPROPANECARBOXIMIDAMIDE] as the compound, how does the IC50 [1] read?
A: 790 nM

Q: How did the IC50 [1] turn out when N=C(N)C1CCCN1 (stereo not given) was run?
A: 700 nM

Q: How did the IC50 (Nitric oxide synthase 1) turn out when N=C(N)[C@H]1CCCN1 was run?
A: 14000 nM

Q: What about the IC50 [1] of the same compound?
A: 120 nM

Q: What about the IC50 (Nitric oxide synthase 3) of the same compound?
A: 15000 nM

Q: And the Kd [2]?
A: 630 nM

Q: How did the IC50 [1] turn out when N=C(N)C1CCCS1 (stereo not given) was run?
A: 5300 nM

Q: N=C(N)[C@H]1CCN1 was tested. Which IC50 (Nitric oxide synthase 1) did it give?
A: 260 nM

Q: What about the IC50 [1] of the same compound?
A: 30 nM

Q: And the IC50 (Nitric oxide synthase 3)?
A: 250 nM

Q: N=C(N)C1CCCNC1 (stereo not given) was tested. Which IC50 [1] did it give?
A: 51000 nM
